Source: ChEMBL document CHEMBL3880411, “Multikinase inhibitors for use in the treatment of cancer” (2009)
The source made the active and inactive calls. The calls are words filed in the database; no cut-off is given here.

Legend:
[1] = target: Nuclear factor NF-kappa-B complex (Homo sapiens) (UniProt Q00653+P19838+Q04206); test: Inhibition of NFkappaB (unknown origin); type: protein-complex assay
[2] = target: Dual specificity mitogen-activated protein kinase kinase 1 (Homo sapiens, UniProt Q02750); test: Inhibition of MEK1 (unknown origin) using ERK2 as substrate after 40 mins by ELISA
Dual specificity mitogen-activated protein kinase kinase 1, sequence (Q02750 whole entry): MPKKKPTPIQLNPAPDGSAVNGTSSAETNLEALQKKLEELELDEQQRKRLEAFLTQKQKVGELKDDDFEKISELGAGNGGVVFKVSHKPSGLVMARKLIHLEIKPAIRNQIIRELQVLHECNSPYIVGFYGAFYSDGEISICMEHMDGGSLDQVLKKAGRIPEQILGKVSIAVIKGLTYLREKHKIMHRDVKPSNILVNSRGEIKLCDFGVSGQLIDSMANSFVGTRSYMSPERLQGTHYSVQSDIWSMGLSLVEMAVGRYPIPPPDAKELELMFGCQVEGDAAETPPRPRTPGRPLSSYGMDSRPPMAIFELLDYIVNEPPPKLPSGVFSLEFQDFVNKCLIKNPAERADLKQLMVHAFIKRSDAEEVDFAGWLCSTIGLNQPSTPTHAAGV

Nuclear factor NF-kappa-B complex (Homo sapiens), sequence (P19838 whole entry, looked up): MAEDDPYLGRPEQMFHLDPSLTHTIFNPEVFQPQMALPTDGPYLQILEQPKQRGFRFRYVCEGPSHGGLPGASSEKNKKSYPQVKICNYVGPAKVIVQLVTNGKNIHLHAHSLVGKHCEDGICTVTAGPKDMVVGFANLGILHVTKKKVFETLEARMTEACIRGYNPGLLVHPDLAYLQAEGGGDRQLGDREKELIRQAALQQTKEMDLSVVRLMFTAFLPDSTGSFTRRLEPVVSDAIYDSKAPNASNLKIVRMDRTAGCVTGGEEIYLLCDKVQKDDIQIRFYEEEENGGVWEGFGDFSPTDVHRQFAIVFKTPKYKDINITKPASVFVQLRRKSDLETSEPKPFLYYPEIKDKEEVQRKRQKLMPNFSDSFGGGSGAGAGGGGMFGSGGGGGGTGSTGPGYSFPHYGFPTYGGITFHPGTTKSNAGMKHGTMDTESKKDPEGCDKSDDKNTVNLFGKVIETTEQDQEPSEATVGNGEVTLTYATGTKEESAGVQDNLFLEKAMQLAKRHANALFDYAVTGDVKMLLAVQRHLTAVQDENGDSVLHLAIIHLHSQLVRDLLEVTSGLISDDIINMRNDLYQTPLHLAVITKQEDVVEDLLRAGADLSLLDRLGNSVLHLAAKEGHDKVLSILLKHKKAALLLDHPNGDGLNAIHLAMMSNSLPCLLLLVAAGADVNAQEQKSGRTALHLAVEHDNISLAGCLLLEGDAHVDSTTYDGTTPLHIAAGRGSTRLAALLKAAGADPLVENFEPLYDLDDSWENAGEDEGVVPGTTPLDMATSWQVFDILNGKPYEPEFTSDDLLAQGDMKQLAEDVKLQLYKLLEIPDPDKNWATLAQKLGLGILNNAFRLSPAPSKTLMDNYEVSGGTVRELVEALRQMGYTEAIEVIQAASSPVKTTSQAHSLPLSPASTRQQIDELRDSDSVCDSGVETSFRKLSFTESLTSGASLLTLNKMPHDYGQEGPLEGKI
Nuclear factor NF-kappa-B complex (Homo sapiens), sequence (Q00653 whole entry, looked up): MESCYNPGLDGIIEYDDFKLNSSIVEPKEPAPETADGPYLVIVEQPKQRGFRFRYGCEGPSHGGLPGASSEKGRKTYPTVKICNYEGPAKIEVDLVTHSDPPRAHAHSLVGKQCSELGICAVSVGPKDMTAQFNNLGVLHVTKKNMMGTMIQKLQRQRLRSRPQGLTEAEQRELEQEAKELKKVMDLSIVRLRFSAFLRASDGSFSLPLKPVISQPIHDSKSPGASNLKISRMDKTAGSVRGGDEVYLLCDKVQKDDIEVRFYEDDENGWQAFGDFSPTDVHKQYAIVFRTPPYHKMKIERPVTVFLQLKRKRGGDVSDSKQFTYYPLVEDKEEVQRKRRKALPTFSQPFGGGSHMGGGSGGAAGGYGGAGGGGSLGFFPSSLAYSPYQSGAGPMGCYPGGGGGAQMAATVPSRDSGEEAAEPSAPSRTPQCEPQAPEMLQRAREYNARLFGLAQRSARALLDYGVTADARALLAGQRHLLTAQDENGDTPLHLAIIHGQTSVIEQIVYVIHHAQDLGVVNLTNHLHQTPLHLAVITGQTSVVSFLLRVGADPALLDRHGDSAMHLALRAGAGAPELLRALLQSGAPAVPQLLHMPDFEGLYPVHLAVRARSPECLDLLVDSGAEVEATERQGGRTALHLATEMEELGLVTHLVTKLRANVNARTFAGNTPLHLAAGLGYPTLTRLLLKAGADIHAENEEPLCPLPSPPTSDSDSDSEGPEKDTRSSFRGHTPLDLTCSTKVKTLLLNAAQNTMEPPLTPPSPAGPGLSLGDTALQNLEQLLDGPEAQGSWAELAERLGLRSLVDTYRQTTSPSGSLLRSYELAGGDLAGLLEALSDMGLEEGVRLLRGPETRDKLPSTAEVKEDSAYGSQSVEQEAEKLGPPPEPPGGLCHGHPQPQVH
Nuclear factor NF-kappa-B complex (Homo sapiens), sequence (Q04206 whole entry, looked up): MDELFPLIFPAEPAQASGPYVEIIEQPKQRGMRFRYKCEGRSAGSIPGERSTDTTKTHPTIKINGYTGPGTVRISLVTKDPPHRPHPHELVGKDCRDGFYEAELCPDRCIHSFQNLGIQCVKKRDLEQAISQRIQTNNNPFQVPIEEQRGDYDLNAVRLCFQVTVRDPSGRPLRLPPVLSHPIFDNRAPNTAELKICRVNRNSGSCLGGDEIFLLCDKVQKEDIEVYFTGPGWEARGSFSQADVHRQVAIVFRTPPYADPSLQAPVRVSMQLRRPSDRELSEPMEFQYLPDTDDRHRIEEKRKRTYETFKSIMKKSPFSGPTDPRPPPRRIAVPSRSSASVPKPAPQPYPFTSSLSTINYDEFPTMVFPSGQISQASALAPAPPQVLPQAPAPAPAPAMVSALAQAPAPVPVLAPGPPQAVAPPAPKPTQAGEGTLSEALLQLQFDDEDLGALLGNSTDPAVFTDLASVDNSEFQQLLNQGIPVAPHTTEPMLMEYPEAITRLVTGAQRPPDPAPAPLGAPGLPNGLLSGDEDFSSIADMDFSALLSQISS

SMILES	inhibition [1]	IC50 [2] [nM]
C[C@@H]1/C=C\C(=O)[C@@H](O)[C@@H](O)C/C=C/c2cc(NOCC(=O)O)cc(O)c2C(=O)O[C@H]1C	Active	> 330
COCCNc1cc(O)c2c(c1)/C=C/C[C@H](O)[C@H](O)C(=O)/C=C\[C@@H](C)[C@H](C)OC2=O	Active	172
C[C@@H]1/C=C\C(=O)[C@@H](O)[C@@H](O)C/C=C/c2cc(NCC(N)=O)cc(O)c2C(=O)O[C@H]1C	Active	99 to 310
C[C@@H]1/C=C\C(=O)[C@@H](O)[C@@H](O)C/C=C/c2cc(NCCN3CCOCC3)cc(O)c2C(=O)O[C@H]1C	Active	91 to 101
C[C@@H]1/C=C\C(=O)[C@@H](O)[C@@H](O)C/C=C/c2cc(NCC(=O)N(C)C)cc(O)c2C(=O)O[C@H]1C	Active	318
CCNc1cc(O)c2c(c1)/C=C/C[C@H](O)[C@@H](O)C(=O)/C=C/[C@@H](C)[C@H](C)OC2=O	Active	–
C[C@@H]1/C=C\C(=O)[C@@H](O)[C@@H](O)C/C=C/c2cc(NCCN3CCN(C)CC3)cc(O)c2C(=O)O[C@H]1C	Active	471 to 946
C[C@@H]1/C=C\C(=O)[C@@H](O)[C@@H](O)C/C=C/c2cc(NCCN3CCCC3)cc(O)c2C(=O)O[C@H]1C	Active	356 to 640
C[C@@H]1/C=C\C(=O)[C@@H](O)[C@@H](O)C/C=C/c2cc(N(CCNCC(O)CO)C(=O)OC(C)(C)C)cc(O)c2C(=O)O[C@H]1C (some centres undefined)	Active	–
CNC(=O)CNc1cc(O)c2c(c1)/C=C/C[C@H](O)[C@H](O)C(=O)/C=C\[C@@H](C)[C@H](C)OC2=O	Active	657
C[C@@H]1/C=C\C(=O)[C@@H](O)[C@@H](O)C/C=C/c2cc(NCCn3ccnc3)cc(O)c2C(=O)O[C@H]1C	Active	120
C[C@@H]1/C=C\C(=O)[C@@H](O)[C@@H](O)C/C=C/c2cc(N3CCOC3=O)cc(O)c2C(=O)O[C@H]1C	Active	187
CNc1cc(O)c2c(c1)/C=C/C[C@H](O)[C@@H](O)C(=O)/C=C\[C@@H](C)[C@H](C)OC2=O	Active	–
C[C@@H]1/C=C\C(=O)[C@@H](O)[C@@H](O)C/C=C/c2cc(NCC(O)CO)cc(O)c2C(=O)O[C@H]1C (some centres undefined)	Active	56 to 101
C[C@@H]1/C=C\C(=O)[C@@H](O)[C@@H](O)C/C=C/c2cc(NCC(=O)O)cc(O)c2C(=O)O[C@H]1C	Active	366
C[C@@H]1/C=C\C(=O)[C@@H](O)[C@@H](O)C/C=C/c2cc(CCCn3ccnc3)cc(O)c2C(=O)O[C@H]1C	Active	9.5 to 37
COCCOCCOCCNCNc1cc(O)c2c(c1)/C=C/C[C@H](O)[C@H](O)C(=O)/C=C\[C@@H](C)[C@H](C)OC2=O	Active	756
C[C@@H]1/C=C\C(=O)[C@@H](O)[C@@H](O)C/C=C/c2cc(NOC[C@H](O)CO)cc(O)c2C(=O)O[C@H]1C	Active	187
C[C@@H]1/C=C\C(=O)[C@@H](O)[C@@H](O)C/C=C/c2cc(N3CCNC3=O)cc(O)c2C(=O)O[C@H]1C	Active	484
CCNc1cc(O)c2c(c1)/C=C/C[C@H](OC(=O)C(F)(F)F)[C@@H](O)C(=O)/C=C\[C@@H](C)[C@H](C)OC2=O	Active	79
C[C@@H]1/C=C\C(=O)[C@@H](O)[C@@H](O)C/C=C/c2cc(NCCO)cc(O)c2C(=O)O[C@H]1C	Active	91 to 198
CNc1cc(O)c2c(c1)/C=C/C[C@H](O)[C@@H](O)C(=O)/C=C/[C@@H](C)[C@H](C)OC2=O	Active	–
C[C@@H]1/C=C\C(=O)[C@@H](O)[C@@H](O)C/C=C/c2cc(NC3CC3)cc(O)c2C(=O)O[C@H]1C	Active	657
C[C@@H]1/C=C\C(=O)[C@@H](O)[C@@H](O)C/C=C/c2cc(NCCNCCO)cc(O)c2C(=O)O[C@H]1C	Active	846
CCNc1cc(O)c2c(c1)C#CC[C@H](O)[C@H](O)C(=O)/C=C\[C@@H](C)[C@H](C)OC2=O	Active	182
CCNc1cc(O)c2c(c1)/C=C/C[C@@H]1OC(=O)O[C@@H]1C(=O)/C=C\[C@@H](C)[C@H](C)OC2=O	Active	145
C[C@@H]1/C=C\C(=O)[C@@H](O)[C@@H](O)C/C=C/c2cc(NCCNCC(O)CO)cc(O)c2C(=O)O[C@H]1C (some centres undefined)	Active	658
C[C@@H]1/C=C\C(=O)[C@@H](O)[C@@H](O)C/C=C/c2cc(NCC3CCNCC3)cc(O)c2C(=O)O[C@H]1C	Active	356
C[C@@H]1/C=C\C(=O)[C@@H](O)[C@@H](O)C/C=C/c2cc(NCCOP(=O)(O)O)cc(O)c2C(=O)O[C@H]1C	Active	> 330
